Measured values published in US20080233179A1, “TRANSDERMAL COMPOSITION HAVING ENHANCED COLOR STABILITY” (priority 2006, published 2008).
Counter-ions that a name gives are not always drawn.

Experiments:
[1] = levodopa taken alone; cited from earlier work
[2] = Lowest effective concentration of sodium metabisulfite on pramipexole color stability (Example 4); format: physicochemical; details: pramipexole hydrochloride 2.00% (FBE) hydro-alcoholic mixture at apparent pH around 8.0
Experimental: A formulation free of antioxidants served as a blank reference (Formulation F).
In parallel, samples stored at 40° C. in a climatic chamber (C-20/600, Climat Temperatur System, Hechingen, Germany) for 1 month were assessed for color as well. […] The formulation containing the lowest level of sodium metabisulfite (0.10% wt, formulation C) was ranked “BY2”. All the other formulations were colorless.

D3 receptors = D3 receptors (Homo sapiens, UniProt P35462); details: cited from earlier work
D3 receptors, sequence (P35462 whole entry): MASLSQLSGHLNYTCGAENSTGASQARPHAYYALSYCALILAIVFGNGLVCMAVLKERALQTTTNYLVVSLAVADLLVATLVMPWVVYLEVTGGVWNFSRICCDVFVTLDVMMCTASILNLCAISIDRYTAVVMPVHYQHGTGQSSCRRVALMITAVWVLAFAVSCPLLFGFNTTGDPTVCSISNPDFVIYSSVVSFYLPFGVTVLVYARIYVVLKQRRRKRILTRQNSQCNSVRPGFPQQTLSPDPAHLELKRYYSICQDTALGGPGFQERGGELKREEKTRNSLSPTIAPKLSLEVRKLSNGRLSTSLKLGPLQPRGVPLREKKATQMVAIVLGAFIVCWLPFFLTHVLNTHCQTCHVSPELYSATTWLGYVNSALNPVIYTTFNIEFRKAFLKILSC

[3] = tested on: D2 subfamily of dopamine receptors; details: in vitro; cited from earlier work
[4] = three times a day, pramipexole dihydrochloride tablets (Wright et al. 1997); cited from earlier work

## N[C@@H](Cc1ccc(O)c(O)c1)C(=O)O [levodopa]
[1]
  fraction of the drug broken down into dopamine before it reaches the brain: about 95%

## O=S([O-])S(=O)(=O)[O-].[Na+].[Na+] [sodium metabisulfite, Sodium metabisulfite]
[2]
  minimal amount of sodium metabisulfite preventing color degradation: 0.2 % wt

## CCCN[C@H]1CCc2nc(N)sc2C1 [pramipexole, (S)-2-amino-4,5,6,7-tetrahydro-6-(propylamino)benzothiazole dihydrochloride monohydrate]
D3 receptors
  affinity for D3 receptors relative to D2 or D4 receptor subtypes: higher affinity than to D2 or D4 receptor subtypes
[3]
  intrinsic activity at the D2 subfamily of dopamine receptors: full intrinsic activity
[4]
  steady-state pharmacokinetic characteristics: linear up to a daily dose of 4.5 mg
